Measurements taken from the COVID Moonshot data (paper PMC7615835).
Values joined by “and” are separate entries in the source; they are usually repeats but may differ in a detail not shown here. Equal entries are not always repeated.

Target: SARS-CoV-2 Main Protease (SARS-CoV-2) (UniProt P0DTD1)

Compound	IC50
Cn1nc(C(=O)N2CCOCC2)cc1C(=O)N(c1ccc(C(C)(C)C)cc1)C(C(=O)NCCc1cccc(F)c1)c1cccnc1 (configuration not stated)	92100 nM
O=C(Nc1n[nH]c2ccncc12)C1CCOc2ccc(Cl)cc21 (configuration not stated)	70300 nM
CC1(C(=O)Nc2cncc3cccc(Cl)c23)CNS(=O)(=O)c2ccc(Cl)cc21 (configuration not stated)	1870 nM
O=C(Cc1cc(Cl)cc(Nc2ncnc3c2ncn3CCO)c1)Nc1cncc2ccccc12	1820 nM
Cc1nc(CN2C(=O)C(=O)c3cc(Br)ccc32)cs1	> 99500 nM
CC(C)(C)c1ccc(O)c(Nc2cc(Cl)cc(CC(=O)Nc3cncc4ccccc34)c2)c1	6500 nM
C[C@@H](C(=O)Nc1cncnc1)c1ccccc1 (stereo in doubt)	> 99500 nM
Cn1cnnc1-c1cccc(NS(=O)(=O)c2c(Cl)nc3sccn23)c1	> 99500 nM
O=C(NCCc1cccc(F)c1)C(c1cccnc1)N(C(=O)c1cocn1)C1CCCCCC1 (configuration not stated)	> 99500 nM
COC(OC)C(=O)N1CCN(Cc2cccc(Cl)c2)CC1	93900 nM and 94300 nM
CCCc1nn(C)c(C(=O)Nc2cc(Cl)cc(CC(=O)Nc3cncc4ccccc34)c2)c1N	7350 nM
COC(=O)[C@H]1C[C@@H](NC(=O)C(c2cccnc2)N(C(=O)c2cocn2)c2ccc(C(C)(C)C)cc2)CN1C(=O)OC(C)(C)C (stereo in doubt)	5320 nM
CS(=O)(=O)c1ccc2c(NC(=O)C3CN(CC(=O)NCC4CC4)C(=O)c4ccc(Cl)cc43)cncc2c1 (configuration not stated)	179 nM and 174 nM
Cc1ccc(S(=O)(=O)N2CCN(C(=O)CCl)C[C@H]2C(=O)NCc2ccccc2)cc1 (stereo in doubt)	3650 nM
CC12CC3CC(C)(C1)CC(Nc1cc(Cl)cc(CC(=O)Nc4cncc5ccccc45)c1)(C3)C2	1580 nM
CC(C)(COP(=O)(O)OP(=O)(O)OC[C@H]1O[C@@H](n2cnc3c(N)ncnc32)[C@H](O)[C@@H]1OP(=O)(O)O)[C@@H](O)C(=O)NCCC(=O)NCCSC(=O)CCC(=O)O (stereo in doubt)	> 99000 nM
COc1cccc(CCNc2cc(Cl)cc(CC(=O)Nc3cncc4ccccc34)c2)c1	3160 nM
O=C(Nc1cncc2ccccc12)C1CN(S(=O)(=O)N2CCCC2CO)Cc2ccc(Cl)cc21 (configuration not stated)	1140 nM
O=C(NCCc1cccc(F)c1)C(c1cccnc1)N(C(=O)c1ccco1)[C@H]1C[C@H](c2cc(F)cc(F)c2)C1 (some centres not stated)	> 99500 nM
CS(=O)(=O)c1ccc2c(N3CCC4(CN(S(=O)(=O)CC5(C#N)CC5)Cc5ccc(Cl)cc54)C3=O)cncc2c1 (configuration not stated)	103 nM
Cn1ncc(NC(=O)C2CCOc3ccc(Cl)cc32)c1C(F)F (configuration not stated)	> 99500 nM
CS(=O)(=O)N1Cc2cc(F)c(Cl)cc2C(C(=O)Nc2cncc3ccccc23)C1 (configuration not stated)	258 nM
O=C(Nc1cncc2ccccc12)C1(CO)CCOc2ccc(Cl)cc21 (configuration not stated)	1090 nM
C=CC(=O)N(c1ccc(C(F)(F)F)cc1)C(C(=O)NCCc1cccc(F)c1)c1cccnc1 (configuration not stated)	20100 nM

Compound	IC50
CS(=O)(=O)c1ccc2c(NC(=O)C3CN(CC(=O)NC4CC4)C(=O)c4ccc(Cl)cc43)cncc2c1 (configuration not stated)	214 nM
O=C(Cc1cc(Cl)cc(Nc2c(Cl)c(F)nc(F)c2Cl)c1)Nc1cncc2ccccc12	2160 nM
Cc1ccc(-n2c(C)c(C)n3c4c(=O)n(CCCO)c(=O)n(C)c4nc23)cc1Cl	> 99500 nM
CC(NCc1cnc2c(cnn2C)c1)c1nc2ccccc2s1 (configuration not stated)	> 99500 nM
O=C(Cc1cc(Cl)cc(N2CCC(Cc3ccccc3)CC2)c1)Nc1cncc2ccccc12	3350 nM
CC(C)(C)c1ccc(N(C(=O)c2cnc[nH]2)C(C(=O)NCCc2cccc(F)c2)c2cccnc2)cc1 (configuration not stated)	292 nM
O=C(NNc1nc2ccccc2[nH]1)c1cc(O)nc2ccccc12	25800 nM
Cn1c(NC(=O)c2cccnc2-n2cccn2)nc2cc(F)ccc21	> 99500 nM
NS(=O)(=O)c1n[nH]cc1C(=O)NC[C@@]1(C(=O)Nc2cncc3ccccc23)CCOc2ccc(Cl)cc21 (stereo in doubt)	1990 nM
O=C(Cc1cc(Cl)cc(Nc2ccnc(Br)c2)c1)Nc1cncc2ccccc12	2740 nM
CCc1ccc([N+](=O)[O-])cc1Nc1cc(Cl)cc(CC(=O)Nc2cncc3ccccc23)c1	1710 nM
C[C@]1(C(=O)Nc2cncc3ccccc23)CCNc2cc(Cl)c(Cl)cc21 (stereo in doubt)	97700 nM
Cc1ccc(C(=O)Nc2c(-c3cnn(C)c3)nc3ccccn23)cn1	> 99500 nM
O=C1N(c2cncc3ccccc23)CCC12CN(S(=O)(=O)CC1(C(F)(F)F)CC1)Cc1ccc(Cl)cc12 (configuration not stated)	157 nM
O=C(Nc1cncc2ccccc12)C1CN(S(=O)(=O)CC2CC2(F)F)Cc2ccc(Cl)cc21 (configuration not stated)	159 nM
O=C(Cc1cc(Cl)cc(N2CCN(c3ccccc3[N+](=O)[O-])CC2)c1)Nc1cncc2ccccc12	4010 nM
O=C(CCc1nc2ccccc2[nH]1)N1CCC(CCc2ccccc2)CC1	> 99500 nM
O=C(Cc1cc(Cl)cc(N(C(=O)c2ccccc2)C2CCNCC2)c1)Nc1cncc2ccccc12	2140 nM
CNC(=O)CN1C[C@H](C(=O)Nc2cncc3cc(Cl)ccc23)c2cc(Cl)ccc2C1=O (stereo in doubt)	149 nM
Cc1cc(Cl)cc(CC2CCN(C(=O)CCl)CC2)c1	3570 nM
CNC(=O)c1ccc2cncc(NC(=O)C3CN(S(=O)(=O)CC4(C#N)CC4)Cc4ccc(Cl)cc43)c2c1 (configuration not stated)	116 nM
Cc1nc(Br)ccc1Nc1cc(Cl)cc(CC(=O)Nc2cncc3ccccc23)c1	2820 nM
CS(=O)(=O)CCN1CC(C(=O)Nc2cncc3ccccc23)c2cc(Cl)ccc2C1=O (configuration not stated)	177 nM
